Source: patent publication US20250109127A1, “METHODS OF USE OF PHENOXYPROPYLAMINE COMPOUNDS TO TREAT DEPRESSION” (Minerva Neurosciences, Inc., priority 2013, published 2025)
“And” between values parts separate entries of the source, which are not always exact repeats. Equal values may be shown once.

System: DOPAC release in the rat prefrontal cortex
Test: Microdialysis: DOPAC release in prefrontal cortex after I.P. administration
Type: in vivo
Conditions: Citalopram 10 mg/kg I.P.
Experimental: The aim of the study was to evaluate, using microdialysis, the effects of an intraperitoneal (I.P.) administration in rats of three different doses of SON-117 on dopamine and its metabolites, serotonin and its metabolite (5-HIAA), and norepinephrine levels in prefrontal cortex.
Thirty-two adult male Wistar rats were used for the whole study (4 groups of eight animals planned for the study, Table 1).
Surgery was performed on rats weighing about 300 g at the beginning of the experiments. Rats were anaesthetized with Ketamine (50 mg/kg) & Xylazine (15 mg/kg) by intramuscular administration. The animals were placed in a stereotaxic apparatus in the flat-skull position at a constant setting of −3.3 mm between ear bars and the incisor bar. The animals were treated with a local anesthesic (xylocaine 1%, Astra Zeneca) and an analgesic (Temgesic, from Schering Plough, 0.05 mg/kg, s.c.). A rostrocaudal midline incision was made with a lancet to expose the dorsal skull surface. The “stereotaxic zero” was defined by the Bregma in accordance with Paxinos and Watson's atlas (1986). A hole was drilled in the skull with a drill and the meninges were pierced with a sterile needle to implant a CMA12 guide cannula which later received the dialysis probe.
Coordinates used for implanting guide cannula in prefrontal cortex from Bregma were anteroposterior 3.7 mm, mediolateral 0.8 mm, and dorsoventral −2 mm (top of the probe was at −5 mm). The guide cannula was fixed to the skull with two stainless steel screws (1.88 mm outside diameter) anchored. An application of dental cement was added. A plastic collar allowed each animal to be tethered to a Swivel assembly of the CMA 120 awake animal system. Following surgery, rats were kept in individual cages and allowed to recover for a minimum of 3-5 days before the experimentation. The rats were handled and put in plastic bowl for 10 min at least every day to habituate the animals to their new environment for the dialysis. An I.P. administration with saline was also performed every day.
Dialysis probes (CMA12/3 mm, membrane, 20 kD cut-off, Carnegie Medicine, Stockholm, Sweden), were carefully washed before inserting into the guide cannula. The wash was performed with the artificial cerebrospinal fluid (aCSF) medium (NaCl 147 mM, KCl 2.7 mM, CaCl2 1.2 mM, MgCl2 0.85 mM) at room temperature. The dialysis system was then equilibrated at 20° C. at a perfusion rate of 1 μl/min with a Carnegie pump (CMA100). All catheters (FEP tubing, internal volume of 1.2 μl/10 cm, and tubing adaptors) used for microdialysis were treated in the same conditions.
The probes duly prepared were inserted into the guide cannula and the CMA120 Swivel assembly secured to the animal using a plastic collar. Flow through the dialysis probe with aCSF was maintained at a rate of 1 μl/min during the whole experimentation. The first four fractions (corresponding to 2 hours) were discarded to avoid the effects of parenchymal disturbance and to ensure that an approximate steady-state level was reached. Fractions were then collected over a period of 8.5 h during which time the animals remained quiet. The dialysates were automatically collected with an autosampler (microfraction collector CMA 140, Carnegie Medicin) and stored at −80° C. until analysis. […] Perfusion was then maintained for 7 hours with aCSF. The dialysates (30 μl) were collected into 300 μl vials, transferred into dry ice and then kept frozen (−80° C.) until analysis. Frozen samples were shipped to a partner for analysis. At the end of the microdialysis study, a PBS with colored ink was perfused through the probe in order to visualize the dialyzed area.
Catecholamine assay: Concentrations of dopamine, DOPAC, HVA, 5-HIAA, 5-HT, and norepinephrin were determined for each sample by HPLC coupled with electrochemical detection.

## CN(C)CCCC1(c2ccc(F)cc2)OCc2cc(C#N)ccc21 (centres unmarked) [Citalopram, citalopram, reference compound]
T0-T30 min
  DOPAC in dialysate, MEAN: 92.52 % of respective basal
T30-T1 h
  DOPAC in dialysate, MEAN: 101.61 % of respective basal
  DOPAC in dialysate, individual animals: 108.24 % of respective basal and 101.84 % of respective basal and 110.81 % of respective basal and 140.94 % of respective basal and 90.86 % of respective basal and 86.64 % of respective basal and 74.29 % of respective basal and 104.04 % of respective basal
T1 h 30-T2 h
  DOPAC in dialysate, MEAN: 103.07 % of respective basal
  DOPAC in dialysate, individual animals: 97.22 % of respective basal and 94.96 % of respective basal and 95.81 % of respective basal and 121.29 % of respective basal and 99.84 % of respective basal and 90.48 % of respective basal and 98.93 % of respective basal and 130.18 % of respective basal
T1 h-T1 h 30
  DOPAC in dialysate, MEAN: 102.71 % of respective basal
  DOPAC in dialysate, individual animals: 108.8 % of respective basal and 86.27 % of respective basal and 95.17 % of respective basal and 138.08 % of respective basal and 88.43 % of respective basal and 88.97 % of respective basal and 77.44 % of respective basal and 143.24 % of respective basal
T2 h 30-T3 h
  DOPAC in dialysate, MEAN: 86.26 % of respective basal
  DOPAC in dialysate, individual animals: 68.83 % of respective basal and 76.04 % of respective basal and 88.98 % of respective basal and 94.72 % of respective basal and 88.97 % of respective basal and 81.12 % of respective basal and 86.11 % of respective basal and 108.52 % of respective basal
T2 h-T2 h 30
  DOPAC in dialysate, MEAN: 91.70 % of respective basal
  DOPAC in dialysate, individual animals: 100.58 % of respective basal and 87.15 % of respective basal and 91.10 % of respective basal and 94.66 % of respective basal and 82.72 % of respective basal and 76.32 % of respective basal and 84.28 % of respective basal and 120.05 % of respective basal
T3 h 30-T4 h
  DOPAC in dialysate, MEAN: 92.94 % of respective basal
  DOPAC in dialysate, individual animals: 98.62 % of respective basal and 88.8 % of respective basal and 84.72 % of respective basal and 92.54 % of respective basal and 81.68 % of respective basal and 80.31 % of respective basal and 88.84 % of respective basal and 131.20 % of respective basal
T3 h-T3 h 30
  DOPAC in dialysate, MEAN: 89.35 % of respective basal
  DOPAC in dialysate, individual animals: 108.36 % of respective basal and 74.94 % of respective basal and 89.42 % of respective basal and 83.63 % of respective basal and 84.95 % of respective basal and 77.32 % of respective basal and 85.84 % of respective basal and 113.17 % of respective basal
T4 h 30-T5 h
  DOPAC in dialysate, MEAN: 97.96 % of respective basal
  DOPAC in dialysate, individual animals: 118.57 % of respective basal and 89.81 % of respective basal and 82.60 % of respective basal and 77.02 % of respective basal and 90.64 % of respective basal and 94.78 % of respective basal and 95.64 % of respective basal and 137.22 % of respective basal
T4 h-T4 h 30
  DOPAC in dialysate, MEAN: 94.89 % of respective basal
  DOPAC in dialysate, individual animals: 107.03 % of respective basal and 83.51 % of respective basal and 92.76 % of respective basal and 82.75 % of respective basal and 83.92 % of respective basal and 79.63 % of respective basal and 104.47 % of respective basal and 127.87 % of respective basal
T5 h 30-T6 h
  DOPAC in dialysate, MEAN: 101.76 % of respective basal
  DOPAC in dialysate, individual animals: 132.77 % of respective basal and 85.32 % of respective basal and 85.38 % of respective basal and 97.98 % of respective basal and 88.27 % of respective basal and 108.01 % of respective basal and 92.66 % of respective basal and 127.03 % of respective basal
T5 h-T5 h 30
  DOPAC in dialysate, MEAN: 93.03 % of respective basal
  DOPAC in dialysate, individual animals: 75.53 % of respective basal and 93.40 % of respective basal and 85.99 % of respective basal and 86.97 % of respective basal and 95.22 % of respective basal and 104.27 % of respective basal and 122.75 % of respective basal
T6 h 30-T7 h
  DOPAC in dialysate, MEAN: 100.53 % of respective basal
  DOPAC in dialysate, individual animals: 119.00 % of respective basal and 87.46 % of respective basal and 83.16 % of respective basal and 92.30 % of respective basal and 79.40 % of respective basal
T6 h-T6 h 30
  DOPAC in dialysate, MEAN: 96.87 % of respective basal
  DOPAC in dialysate, individual animals: 117.46 % of respective basal and 79.52 % of respective basal and 81.29 % of respective basal and 39.89 % of respective basal and 77.98 % of respective basal and 106.17 % of respective basal and 94.72 % of respective basal and 131.51 % of respective basal
T-30 min-T0 (pre-dose)
  DOPAC in dialysate, MEAN: 96.20 % of respective basal
T-1 h-T-30 min (pre-dose)
  DOPAC in dialysate, MEAN: 98.03 % of respective basal
